Assay results as given in patent publication US3974184A, “Microbial production of certain isoflavones” (Zaidan Hojin Biseibutsu Kagaku Kenkyu Kai, priority 1973, dated 1976).
“Also recorded” adds a separate entry of the source. Where two headings read alike, the source gives them in different places.

Columns and labels:
[1] = system: tyrosine hydroxylase; assay: Inhibition of tyrosine hydroxylase; assay type: biochemical; details: at 100 .nu./cc
[2] = biological target: T1, DOPA decarboxylase (Homo sapiens, UniProt P20711); assay: Inhibition of DOPA decarboxylase (method of Davis and Awapara); assay type: biochemical; details: for inhibiting action against DOPA decarboxylase: in words; for IC50: read-out: concentration for 50% inhibition of DOPA decarboxylase (converted)
T1 sequence (P20711 1-480): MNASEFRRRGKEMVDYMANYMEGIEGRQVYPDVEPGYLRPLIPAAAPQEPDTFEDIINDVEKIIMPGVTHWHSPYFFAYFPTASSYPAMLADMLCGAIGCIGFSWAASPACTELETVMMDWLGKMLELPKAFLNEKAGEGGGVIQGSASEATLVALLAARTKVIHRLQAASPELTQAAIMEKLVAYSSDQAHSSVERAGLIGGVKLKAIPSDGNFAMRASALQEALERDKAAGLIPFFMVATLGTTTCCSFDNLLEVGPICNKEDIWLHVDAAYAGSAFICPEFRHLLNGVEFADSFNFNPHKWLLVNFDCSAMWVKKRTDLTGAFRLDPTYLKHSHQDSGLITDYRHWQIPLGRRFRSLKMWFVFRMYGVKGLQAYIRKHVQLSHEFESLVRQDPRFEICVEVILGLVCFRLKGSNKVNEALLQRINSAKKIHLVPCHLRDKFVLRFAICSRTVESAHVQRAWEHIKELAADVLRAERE
Excerpt: It has been reported heretofore that an inhibitor against COMT delays the metabolism or rate of destruction of adrenaline, noradrenaline, etc. in the human body and, therefore, serves to prolong and promote their blood pressure elevating action. These inhibitors may also be used as curative or palliative medicines for diseases such as depression which is considered to be caused when catechol amines present in the human body are reduced in quantity. There has been much argument about etiological causes of schizophrenia. One hypothesis says that the schizophrenia is caused by the production of abnormally methylated bioamines (methylated catechol amines and serotonin) within the brain. Especially, hallucination of schizophrenia is said to be caused by abnormally methylated catechol amines (Ref. "Amines and Schizophrenia" by H. E. Himwich, S. S. Kety and J. R. Smythies, 1967, Pergamon Press, Oxford). The inhibitors of COMT may therefore be used as curative medicines for schizophrenia and for the associated hallucination. On the other hand, the anti-hemochlasis of isoflavones has been reported by Murata and Ikehata ("Agr. Biol. Chem." Vol. 32, No. 6, 1968, pp. 740-746) and the cholesterol deposition preventing action of isoflavones has been reported by G. W. Moersch, D. F. Morrow and W. A. Neuklis ("J. Med. Chem." 10(2), 1967, pp. 154-158). […] It will therefore be possible to use the compounds (I), (II) and (III) as curative medicines for diseases such as hypertension and arteriosclerosis and also as economizers in combination with DOPA for treating Parkinson's disease. […] This means that there is a possibility to use the compounds (I) and (II) as curative medicines for inflammation and allergy in man.

[3] = biological target: T2, histidine decarboxylase (Homo sapiens, UniProt P19113); assay: Inhibition of histidine decarboxylase (formation of histamine-2-14C); assay type: biochemical; details: for inhibiting action against histidine decarboxylase: in words; for IC50: read-out: concentration for 50% inhibition ratio of histidine decarboxylase (converted)
T2 sequence (P19113 1-662): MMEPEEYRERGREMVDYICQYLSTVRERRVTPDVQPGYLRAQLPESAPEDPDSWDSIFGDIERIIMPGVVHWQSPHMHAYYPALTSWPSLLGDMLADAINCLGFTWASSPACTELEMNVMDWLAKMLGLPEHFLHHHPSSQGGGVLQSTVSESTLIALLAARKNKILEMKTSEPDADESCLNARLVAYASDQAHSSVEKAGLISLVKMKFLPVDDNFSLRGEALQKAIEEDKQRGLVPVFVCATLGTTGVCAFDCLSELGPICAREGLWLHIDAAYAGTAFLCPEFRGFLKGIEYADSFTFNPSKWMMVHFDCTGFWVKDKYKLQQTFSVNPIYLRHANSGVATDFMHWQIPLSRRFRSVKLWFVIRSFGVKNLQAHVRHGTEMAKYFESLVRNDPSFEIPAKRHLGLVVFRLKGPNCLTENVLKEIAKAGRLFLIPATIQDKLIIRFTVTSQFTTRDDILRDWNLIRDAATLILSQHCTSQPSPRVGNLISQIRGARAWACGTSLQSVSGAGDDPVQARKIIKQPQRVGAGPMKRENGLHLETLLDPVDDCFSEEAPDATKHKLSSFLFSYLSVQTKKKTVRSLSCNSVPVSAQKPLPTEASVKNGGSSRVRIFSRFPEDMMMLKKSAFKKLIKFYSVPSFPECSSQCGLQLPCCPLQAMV
Method: This inhibition is measured in the following manner:
The reaction liquid is prepared from 2.5 × 10^-^4 mole of L-histidine-2-^14 C (1.0 × 10^5 cpm), 3.7 × 10^-^5 mole of pyridoxal phosphate, 0.1 cc of histidine decarboxylase (protein content, 1 mg/cc), 0.1 cc of 0.67 mole phosphate buffer solution (pH 6.8) and sample solution. To this mixture there is added distilled water until 1 cc total volume of reaction liquid is obtained. The thusly prepared reaction liquid is then allowed to react for 2 hours at 37° C. and the formed histamine-2-^14 C is adsorbed on ammonia type "Amberlite CG-50". After washing the "Amberlite CG-50" with water, the adsorbed histamine is eluted with 1 N aqueous ammonia and a quantity of elute is sampled to measure its radioactivity by use of a liquid scintillation counter. The thusly measured radioactivity tells the quantity of formed histamine, so that the inhibition against histidine decarboxylase can be determined.

[4] = system: bacteria; assay: Inhibiting action against growth of bacteria; assay type: cell-based; details: at 100 .nu./cc
[5] = system: fungi; assay: Inhibiting action against growth of fungi; assay type: cell-based; details: at 100 .nu./cc
[6] = system: spontaneously hypertensive rats; assay: Blood pressure lowering action in spontaneously hypertensive rats; assay type: in vivo; details: for blood pressure lowering action: abdominal cavity; for blood pressure lowering: in words
Excerpt: The inventors also examined the blood pressure lowering action of the compounds (I), (II) and (III) by administering them in the abdominal cavity of spontaneously hypertensive rats.

SMILES | inhibiting action against tyrosine hydroxylase [1] | inhibiting action against DOPA decarboxylase [2] | IC50 [2] [µM] | inhibiting action against histidine decarboxylase [3] | IC50 ([3]; printed in parentheses) [µM] | IC50 [3] [µM] | inhibiting action against the growth of bacteria [4] | inhibiting action against the growth of fungi [5] | blood pressure lowering action ([6]; 12.5 mg./kg., after 1 hour) [%] | blood pressure lowering action ([6]; 12.5 mg./kg., after 3 hours) [%] | blood pressure lowering action ([6]; 12.5 mg./kg., after 6 hours) [%] | blood pressure lowering action ([6]; 12.5 mg./kg., after 24 hours) [%] | blood pressure lowering action ([6]; 50 mg./kg., after 1 hour) [%] | blood pressure lowering action ([6]; 50 mg./kg., after 3 hours) [%] | blood pressure lowering action ([6]; 50 mg./kg., after 6 hours) [%] | blood pressure lowering action ([6]; 50 mg./kg., after 24 hours) [%] | blood pressure lowering [6] | blood pressure lowering action ([6]; 50 mg./kg., after 48 hours) [%] | also measured
COc1ccc(-c2coc3cc(O)c(OC)c(O)c3c2=O)cc1O [Compound (I), 3',5,7-trihydroxy-4',6-dimethoxy-isoflavone] | no inhibiting action | powerful inhibiting action | 37.8 | inhibit; also recorded: inhibiting action | 18 | 18.2 | no inhibiting action | no inhibiting action | 13.6 | 10.7 | 15.8 | 7.8 | 20.8 | 16.4 | 35.0 | 3.8 | lowered the blood pressure |  | 
COc1ccc(-c2coc3c(OC)c(O)cc(O)c3c2=O)cc1O [Compound (II), 3',5,7-trihydroxy-4',8-dimethoxy-isoflavone] | no inhibiting action | powerful inhibiting action | 15.1 | inhibit; also recorded: inhibiting action | 4.5 | 4.54 | no inhibiting action | no inhibiting action | 10.4 | 34.4 | 32.8 | 18.0 | 22.3 | 35.9 | 35.3 | 23.9 | lowered the blood pressure | 16.3 | blood pressure lowering action ([6]; 3.1 mg./kg., after 1 hour): 21.0%; blood pressure lowering action ([6]; 3.1 mg./kg., after 3 hours): 26.3%; blood pressure lowering action ([6]; 3.1 mg./kg., after 6 hours): 28.0%; blood pressure lowering action ([6]; 3.1 mg./kg., after 24 hours): 22.0%; blood pressure lowering action ([6]; 3.1 mg./kg., after 48 hours): 13.4%; blood pressure lowering action ([6]; 12.5 mg./kg., after 48 hours): 18.0%
COc1ccc(-c2coc3c(OC)c(O)c(OC)cc3c2=O)cc1O [Compound (III), 3',7-dihydroxy-4',6,8-trimethoxy-isoflavone] | no inhibiting action | no inhibiting action |  | inhibiting action |  |  | no inhibiting action | no inhibiting action |  |  |  |  | 11.9 | 13.0 | 17.3 | 7.0 | lowered the blood pressure | 3.0 | inhibition of DOPA decarboxylase ([2]; at a concentration as high as 100 .nu./cc): no inhibition; inhibition at 100 µg/mL ([3]; 2 h, at 100 .nu./cc, read-out: inhibition ratio against histidine decarboxylase): ~31.9%
